# Experiments:
# [1] = biological target: T1, FAP protein (Homo sapiens, UniProt Q12884); test: Biacore test of ligand binding to FAP protein; details: FAP protein on SA chip, 15° C., 1:1 binding model
# T1 construct: purchased Sinobiological
# T1 sequence (Q12884 1-760): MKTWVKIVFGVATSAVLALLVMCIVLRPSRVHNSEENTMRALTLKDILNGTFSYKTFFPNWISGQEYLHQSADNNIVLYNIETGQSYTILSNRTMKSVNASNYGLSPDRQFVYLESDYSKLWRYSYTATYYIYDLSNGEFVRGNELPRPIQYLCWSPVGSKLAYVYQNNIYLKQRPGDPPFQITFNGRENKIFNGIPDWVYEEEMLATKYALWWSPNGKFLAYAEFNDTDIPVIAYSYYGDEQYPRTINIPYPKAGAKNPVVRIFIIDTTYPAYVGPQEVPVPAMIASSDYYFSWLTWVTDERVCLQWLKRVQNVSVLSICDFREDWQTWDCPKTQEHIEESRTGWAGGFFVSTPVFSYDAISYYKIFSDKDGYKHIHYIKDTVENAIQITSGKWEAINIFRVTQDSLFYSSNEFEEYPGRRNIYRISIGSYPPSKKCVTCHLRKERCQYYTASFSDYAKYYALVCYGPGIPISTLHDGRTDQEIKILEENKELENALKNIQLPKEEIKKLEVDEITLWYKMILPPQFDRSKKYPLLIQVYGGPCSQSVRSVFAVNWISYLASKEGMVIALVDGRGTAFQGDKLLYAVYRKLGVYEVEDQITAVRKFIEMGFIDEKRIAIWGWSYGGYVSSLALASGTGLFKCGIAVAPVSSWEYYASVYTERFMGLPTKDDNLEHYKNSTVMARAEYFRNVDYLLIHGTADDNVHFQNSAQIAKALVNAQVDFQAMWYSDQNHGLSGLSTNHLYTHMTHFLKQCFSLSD
# Method: The Biacore 8K (Cytiva) instrument was used to detect ligand binding of the FAP protein (Sinobiological). The FAP protein was captured on the SA chip. Before ligand immobilization (flow paths 1 and 2, flow rate of 10 μL/min), the FAP protein (10 μg/mL, flow rate of 5 μL/min, injection time of 600 s) was immobilized on flow path 2 using running buffer, and the sensor surface was conditioned with three consecutive injections of 1 M NaCl in 50 mM NaOH. After each ligand injection, additional washing was carried out with isopropanol in 1 M NaCl and 50 mM NaOH (flow paths 1 and 2, flow rate of 10 μL/min, injection time of 60 s).
# The test compounds were dissolved in 100% dimethyl sulfoxide and diluted to 10 mM, then further diluted in the assay buffer (PBS, pH 7.4, 1 mM TCEP ([…]), 0.05% P20, 2% dimethyl sulfoxide) to appropriate maximum concentrations. The analyte was run under the following conditions: analysis temperature=15° C., analysis step=all set to LMW kinetics; cycle type=single cycle (90 s contact time, 1800 s dissociation time, 30 μL/min flow rate, flow channels 1, 2); flow channel detection=2-1). Data evaluation was performed using Biacore Insight Evaluation Software, and the data were fitted to a 1:1 binding model.
# The Biacore results are shown in Table 1: pKD=−Log KD, where KD is the binding affinity of the compound to the FAP protein as measured by Biacore. The binding affinity is expressed by KD (M)=Kd(1/s)/Ka(1/Ms). Where A: pKD>8, B: 7<pKD<8, C: 6<pKD<7, D: pKD<6.
# [2] = tested on: HT1080 cell line with high FAP expression; test: Therapeutic experiment of ^177Lu-labeled compounds in tumor-bearing mice; type: in vivo, Balb/c Nude mice; details: for therapeutic effects in mouse tumor model: ^177Lu-labeled compound; for T/C / Tumor volume (mm^3) Group administration Day 14 / TGI^TV (%): 0.8 mCi; for T/C / Tumor volume (mm^3) Group administration Day 14: Day 14; for TGI^TV (%): Day 14, relative tumor inhibition rate; for Tumor volume (mm^3) Before administration: baseline, 0.8 mCi group
# Method: Balb/c Nude tumor-bearing mice (supplier: Shanghai Alamo Pharmaceutical Technology Co., Ltd., HT1080 cell line with high FAP expression) aged approximately 6-8 weeks were randomly assigned to 13 experimental groups based on tumor volume, with 5 mice per group. Animal body weight and tumor size were measured, and administration was initiated on the grouping day starting with Group 1 (control group: normal saline). General health and appearance were observed daily after the start of the experiment. Animal body weight and tumor size were measured before each sample collection time point. Any abnormal observations detected during the entire study period were required to be recorded in the raw data.
# The synthesized compounds were labeled with ^177Lu and subsequently utilized in the therapeutic assay on mouse tumor models. […] Furthermore, no significant changes in mouse body weight (FIG. 8) were observed throughout the experimental period.
# • TGI^TV: Relative tumor inhibition rate (TGI^TV): TGI^TV (%)=[1−(Ti−T0)/(Vi−V0)]×100%; • (Ti: average tumor volume of the treatment group on day i of administration, TO: average tumor volume of the treatment group on day 0 of administration; Vi: average tumor volume of the solvent control group on day i of administration, V0: average tumor volume of the solvent control group on day 0 of administration) • T/C: T/C % is one of the most commonly used indicators for tumor response to treatment: T/C %=T/C*100%; • (T represents the average tumor volume of the treatment group at a specific time point; C represents the average tumor volume of the control group at a specific time point.)
# The differences between the treatment groups (tumor volumes of the second, third, fourth, and fifth groups) and the control group (tumor volume of the first group) and between the tumor volumes of the first, third, fourth, and fifth groups and the tumor volume of the second group were analyzed using the two-way ANOVA Fisher's LSD test method. P-values less than 0.05 were considered statistically significant. Both statistical significance and biological significance were taken into account during the result analysis.
compound,measurement,setting,value
"C[C@@H](NC(=O)c1cnc2c(c1)CCN(C(=O)CCC(=O)NCCNC(=O)CCC(C(=O)O)N1CCN(CC(=O)O)CCN(CC(=O)O)CCN(CC(=O)O)CC1)C2)C(=O)N1CC(F)(F)C[C@H]1C#N (stereo partly drawn) [JHM1, 2,2′,2″-(10-(1-carboxy-4-((2-(4-(3-(((R)-1-((S)-2-cyano-4,4-difluoropyrrolidin-1-yl)-1-oxopropan-2-yl)carbamoyl)-5,8-dihydro-1,7-naphthyridin-7 (6H)-yl)-4-oxobutanamido)ethyl)amino)-4-oxobutyl)-1,4,7,10-tetraazacyclododecane-1,4,7-triyl)triacetic acid]",Kd,[1],100 to 1000 nM
N#C[C@@H]1CC(F)(F)CC1C(=O)CNC(=O)c1ccc2c(c1)CCN(C(=O)CCC(=O)NCCNC(=O)CCC(C(=O)O)N1CCN(CC(=O)O)CCN(CC(=O)O)CCN(CC(=O)O)CC1)C2 (some centres unmarked) [JHH6],Kd,[1],100 to 1000 nM
N#C[C@@H]1CC(F)(F)CN1C(=O)CNC(=O)c1ccc2c(c1)CCCN2C(=O)CCC(=O)NCCNC(=O)CCNC(=O)CN1CCN(CC(=O)O)CCN(CC(=O)O)CCN(CC(=O)O)CC1 [JHH13],Kd,[1],10 to 100 nM
N#C[C@@H]1CC(F)(F)CN1C(=O)CNC(=O)c1cc2c(s1)CCN(C(=O)CCC(=O)NCCNC(=O)CCNC(=O)CN1CCN(CC(=O)O)CCN(CC(=O)O)CCN(CC(=O)O)CC1)C2 [JHH11],Kd,[1],< 10 nM
N#C[C@@H]1CC(F)(F)CN1C(=O)CNC(=O)c1ccc2c(c1)CCN(C(=O)CCC(=O)NCCNC(=O)CCNC(=O)CN1CCN(CC(=O)O)CCN(CC(=O)O)CCN(CC(=O)O)CC1)C2 [JHH12],Kd,[1],< 10 nM
"N#C[C@@H]1CC(F)(F)CN1C(=O)CNC(=O)c1cnc2c(c1)CCN(C(=O)CCC(=O)NCCNC(=O)CCC(C(=O)O)N1CCN(CC(=O)O)CCN(CC(=O)O)CCN(CC(=O)O)CC1)C2 (stereo partly drawn) [JHH1, 2,2′,2″-(10-(1-carboxy-4-((2-(4-(3-((2-((S)-2-cyano-4,4-difluoropyrrolidin-1-yl)-2-oxoethyl)carbamoyl)-5,8-dihydro-1,7-naphthyridin-7 (6H)-yl)-4-oxobutanamido)ethyl)amino)-4-oxobutyl)-1,4,7,10-tetraazacyclododecane-1,4,7-triyl)triacetic acid]",therapeutic effects in mouse tumor model,[2],dose-dependent therapeutic effects
same,Kd,[1],10 to 100 nM
N#C[C@@H]1CC(F)(F)CN1C(=O)CNC(=O)c1ccc2c(c1)CCN(C(=O)CCC(=O)NCC(=O)N1CN(C(=O)CNC(=O)CCC(=O)N3CCc4cc(C(=O)NCC(=O)N5CC(F)(F)C[C@H]5C#N)ccc4C3)CN(C(=O)CNC(=O)CN3CCN(CC(=O)O)CCN(CC(=O)O)CCN(CC(=O)O)CC3)C1)C2 [JHDB6],Kd,[1],< 10 nM
N#C[C@@H]1CC(F)(F)CN1C(=O)CNC(=O)c1cccc(C2CCN(C(=O)CCC(=O)NCCNC(=O)CCC(C(=O)O)N3CCN(CC(=O)O)CCN(CC(=O)O)CCN(CC(=O)O)CC3)CC2)c1 (some centres unmarked) [JHH9],therapeutic effects in mouse tumor model,[2],dose-dependent therapeutic effects
same,Kd,[1],< 10 nM
N#C[C@@H]1CC(F)(F)CN1C(=O)CNC(=O)c1cccc(C2CCN(C(=O)CCC(=O)NCCNC(=O)CCC(C(=O)O)N3CCN(CC(=O)O)CCN(CC(=O)O)CCN(CC(=O)O)CC3)CC2)c1.[177Lu] (some centres unmarked) [^177Lu-JHH9],T/C,[2],30.65%
same,Tumor volume (mm^3) Group administration Day 14,[2],800.87 ± 42.08 mm^3
same,TGI^TV (%),[2],72.54%
same,Tumor volume (mm^3) Before administration,[2],155.24 ± 14.81 mm^3
"N#C[C@@H]1CC(F)(F)CN1C(=O)CNC(=O)c1ccnc2c(NC(=O)CCC(=O)NCCNC(=O)CCC(C(=O)O)N3CCN(CC(=O)O)CCN(CC(=O)O)CCN(CC(=O)O)CC3)cccc12.[177Lu] (some centres unmarked) [^177Lu-OncoFAP-DOTAGA, reference compound]",T/C,[2],32.33%
same,Tumor volume (mm^3) Group administration Day 14,[2],844.66 ± 41.70 mm^3
same,TGI^TV (%),[2],69.90%
same,Tumor volume (mm^3) Before administration,[2],137.00 ± 12.07 mm^3
N#C[C@@H]1CC(F)(F)CN1C(=O)CNC(=O)c1cc2c(s1)CCN(C(=O)CCC(=O)NCCNC(=O)CCC(C(=O)O)N1CCN(CC(=O)O)CCN(CC(=O)O)CCN(CC(=O)O)CC1)C2 (some centres unmarked) [JHH3],Kd,[1],< 10 nM
C[C@@H]1CC(F)(F)CN1C(=O)CNC(=O)c1ccc2c(c1)CN(C(=O)CCC(=O)NCCNC(=O)CCC(C(=O)O)N1CCN(CC(=O)O)CCN(CC(=O)O)CCN(CC(=O)O)CC1)C2 (some centres unmarked) [JHH7],Kd,[1],< 10 nM
N#C[C@@H]1CC(F)(F)CN1C(=O)CNC(=O)c1cccc2c1CCCC2C(=O)CCC(=O)NCCNC(=O)CCNC(=O)CN1CCN(CC(=O)O)CCN(CC(=O)O)CCN(CC(=O)O)CC1 (some centres unmarked) [JHH14],therapeutic effects in mouse tumor model,[2],dose-dependent therapeutic effects
O=C(O)CN1CCN(CC(=O)O)CCN(CC(=O)NCc2ccc(C(=O)N[C@H](CO)C(=O)N3CCC[C@H]3B(O)O)cc2)CCN(CC(=O)O)CC1 [JHB1],Kd,[1],10 to 100 nM
N#C[C@@H]1CC(F)(F)CN1C(=O)CNC(=O)c1cccc(C2CCN(C(=O)CCC(=O)NCC(=O)N3CN(C(=O)CNC(=O)CCC(=O)N4CCC(c5cccc(C(=O)NCC(=O)N6CC(F)(F)C[C@H]6C#N)c5)CC4)CN(C(=O)CNC(=O)CN4CCN(CC(=O)O)CCN(CC(=O)O)CCN(CC(=O)O)CC4)C3)CC2)c1 [JHDB7],Kd,[1],10 to 100 nM
C[C@@H](NC(=O)c1ccc(CNC(=O)CCC(=O)NCCCC[C@H](NC(=O)CCC(=O)NCc2ccc(C(=O)N[C@H](C)C(=O)N3CCC[C@H]3B(O)O)cc2)C(=O)NCCOCCNC(=O)CN2CCN(CC(=O)O)CCN(CC(=O)O)CCN(CC(=O)O)CC2)cc1)C(=O)N1CCC[C@H]1B(O)O [JHDB2],Kd,[1],100 to 1000 nM
N#C[C@@H]1CC(F)(F)CN1C(=O)CNC(=O)c1ccc2c(n1)CCN(C(=O)CCC(=O)NCCNC(=O)CCC(C(=O)O)N1CCN(CC(=O)O)CCN(CC(=O)O)CCN(CC(=O)O)CC1)C2 (some centres unmarked) [JHH2],Kd,[1],10 to 100 nM
"N#C[C@@H]1CC(F)(F)CN1C(=O)CNC(=O)c1cccc2c1CCN(C(=O)CCC(=O)NCCNC(=O)CCC(C(=O)O)N1CCN(CC(=O)O)CCN(CC(=O)O)CCN(CC(=O)O)CC1)C2 (some centres unmarked) [^177Lu-JHH5, metal not drawn]",T/C,[2],20.89%
same,Tumor volume (mm^3) Group administration Day 14,[2],545.74 ± 94.21 mm^3
same,TGI^TV (%),[2],83.08%
same,Tumor volume (mm^3) Before administration,[2],148.04 ± 9.78 mm^3
